Assay results: the Kinase Knowledgebase extract (Sharma et al. 2016)

target: MAPK14 (human) (UniProt Q16539); assay: Enzyme Assay
Sequence (Q16539 whole entry, looked up): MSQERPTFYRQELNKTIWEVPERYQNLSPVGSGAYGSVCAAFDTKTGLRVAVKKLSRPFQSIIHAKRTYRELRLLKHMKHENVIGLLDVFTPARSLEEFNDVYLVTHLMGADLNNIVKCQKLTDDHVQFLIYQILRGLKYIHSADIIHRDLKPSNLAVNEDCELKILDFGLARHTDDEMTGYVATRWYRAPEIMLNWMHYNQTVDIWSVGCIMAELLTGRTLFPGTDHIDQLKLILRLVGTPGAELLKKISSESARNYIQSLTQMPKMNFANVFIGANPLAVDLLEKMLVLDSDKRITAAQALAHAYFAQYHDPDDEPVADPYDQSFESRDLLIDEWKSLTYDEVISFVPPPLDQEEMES

IC50, < 10 nM:
C[C@H]1CCCCN1c1nnc2ccc(O[C@@H]3CC[C@H](NC(=O)Nc4cc(C(C)(C)C)nn4-c4cccc(CCN5CCCC5)c4)c4ccccc43)cn12
C[C@H]1CCCCN1c1nnc2ccc(O[C@@H]3CC[C@H](NC(=O)Nc4cc(C(C)(C)C)nn4-c4cccc(OCCN5CCN(C)CC5)c4)c4ccccc43)cn12
CC(C)(C)c1cc(NC(=O)N[C@H]2CC[C@@H](Oc3ccc4nnc(N5CCCCC5)n4c3)c3ccccc32)n(-c2ccc(C#N)cc2)n1
Cc1ccc(-n2nc(C(C)(C)C)cc2NC(=O)N[C@H]2CC[C@@H](Oc3ccc4nnc(CCN5CCCC5)n4c3)c3ccccc32)cc1
C[C@H]1CCCCN1c1nnc2ccc(O[C@@H]3CC[C@H](NC(=O)Nc4cc(C(C)(C)C)nn4-c4cccc(OCCN5C6CCC5COC6)c4)c4ccccc43)cn12
Cc1ccc(-n2nc(C(C)(C)C)cc2NC(=O)N[C@H]2CC[C@H](Oc3ccc4nnc(N5CCCCC5)n4c3)c3ccccc32)cc1
C[C@@H]1CCC[C@H](C)N1c1nnc2ccc(O[C@@H]3CC[C@H](NC(=O)Nc4cc(C(C)(C)C)nn4-c4cccc(CN5CCOCC5)c4)c4ccccc43)cn12
Cc1ccc(-n2nc(C(C)(C)C)cc2NC(=O)N[C@H]2CC[C@@H](Oc3ccc4nnc(CN5CCNCC5)n4c3)c3ccccc32)cc1
Cc1ccc(-n2nc(C(C)(C)C)cc2NC(=O)N[C@H]2CC[C@@H](Oc3ccc4nnc(N5CCC[C@H](O)C5)n4c3)c3ccccc32)cc1
C[C@H]1CCCCN1c1nnc2ccc(O[C@@H]3CC[C@H](NC(=O)Nc4cc(C(C)(C)C)nn4-c4cccc(CCN5CCOCC5)c4)c4ccccc43)cn12
C[C@H]1CCCCN1c1nnc2ccc(O[C@@H]3CC[C@H](NC(=O)Nc4cc(C(C)(C)C)nn4C)c4ccccc43)cn12
Cc1ccc(-n2nc(C(C)(C)C)cc2NC(=O)N[C@H]2CC[C@@H](Oc3ccc4nnc(N5CCC(C)(O)CC5)n4c3)c3ccccc32)cc1
C[C@H]1CCCCN1c1nnc2ccc(O[C@@H]3CC[C@H](NC(=O)Nc4cc(C(C)(C)C)nn4-c4cccc(OCCN(C)C)c4)c4ccccc43)cn12
CC(C)(C)c1cc(NC(=O)N[C@H]2CC[C@@H](Oc3ccc4nnc(N5CCCCC5)n4c3)c3ccccc32)n(-c2cnn(CCN3CCOCC3)c2)n1
Cc1ccc(-n2nc(C(C)(C)C)cc2NC(=O)N[C@H]2CC[C@@H](Oc3ccc4nnc(CCN5CCN(C)CC5)n4c3)c3ccccc32)cc1
Cc1ccc(-n2nc(C(C)(C)C)cc2NC(=O)N[C@H]2CC[C@@H](Oc3ccc4nnc([C@H]5CCCN(C)C5)n4c3)c3ccccc32)cc1
CCN(C)CCOc1cccc(-n2nc(C(C)(C)C)cc2NC(=O)N[C@H]2CC[C@@H](Oc3ccc4nnc(N5CCCC[C@@H]5C)n4c3)c3ccccc32)c1
Cc1ccc(-n2nc(C(C)(C)C)cc2NC(=O)N[C@H]2CC[C@@H](Oc3ccc4nnc(N5CC[C@@H](CO)C5)n4c3)c3ccccc32)cc1
Cc1ccc(-n2nc(C(C)(C)C)cc2NC(=O)N[C@H]2CC[C@@H](Oc3ccc4nnc(N)n4c3)c3ccccc32)cc1
CC(C)(C)c1cc(NC(=O)N[C@H]2CC[C@@H](Oc3ccc4nnc(N5CCCCC5)n4c3)c3ccccc32)n(-c2ccc(CO)cc2)n1
C[C@H]1CCCCN1c1nnc2ccc(O[C@@H]3CC[C@H](NC(=O)Nc4cc(C(C)(C)C)nn4-c4cccc(OCCN5CCOCC5)c4)c4ccccc43)cn12
C[C@H]1CCCCN1c1nnc2ccc(O[C@@H]3CC[C@H](NC(=O)Nc4cc(C(C)(C)C)nn4-c4cccc(CCN5CCCN(C)CC5)c4)c4ccccc43)cn12
Cc1ccc(-n2nc(C(C)(C)C)cc2NC(=O)N[C@H]2CC[C@@H](Oc3ccc4cnn(CCO)c4c3)c3ccccc32)cc1
Cc1ccc(-n2nc(C(C)(C)C)cc2NC(=O)N[C@H]2CC[C@@H](Oc3ccc4nnc(N5CCC[C@@H](CO)C5)n4c3)c3ccccc32)cc1
Cn1cc(-n2nc(C(C)(C)C)cc2NC(=O)N[C@H]2CC[C@@H](Oc3ccc4nnc(N5CCCCC5)n4c3)c3ccccc32)cn1
Cc1ccc(-n2nc(C(C)(C)C)cc2NC(=O)N[C@H]2CC[C@@H](Oc3ccc4nnc([C@H]5CCCN5)n4c3)c3ccccc32)cc1
CN1CCN(Cc2cccc(-n3nc(C(C)(C)C)cc3NC(=O)N[C@H]3CC[C@@H](Oc4ccc5nnc(N6CCCCC6)n5c4)c4ccccc43)c2)CC1
Cc1ccc(-n2nc(C(C)(C)C)cc2NC(=O)N[C@H]2CC[C@@H](Oc3ccc4nnc(N5CC[C@H](CO)C5)n4c3)c3ccccc32)cc1
Cc1ccc(-n2nc(C(C)(C)C)cc2NC(=O)N[C@H]2CC[C@@H](Oc3ccc4nnc(N5CCCC[C@@H]5C)n4c3)c3ccccc32)cc1
CN(C)CCn1cnc(-n2nc(C(C)(C)C)cc2NC(=O)N[C@H]2CC[C@@H](Oc3ccc4nnc(N5CCCCC5)n4c3)c3ccccc32)c1
Cc1ccc(-n2nc(C(C)(C)C)cc2NC(=O)N[C@H]2CC[C@@H](Oc3ccc4nnc(-c5ccc(CN6CCOCC6)cc5)n4c3)c3ccccc32)cc1
CN1CCC[C@H]1c1nnc2ccc(O[C@@H]3CC[C@H](NC(=O)Nc4cc(C(C)(C)C)nn4-c4ccc(O)cc4)c4ccccc43)cn12
Cc1ccc(-n2nc(C(C)(C)C)cc2NC(=O)N[C@H]2CC[C@@H](Oc3ccc4nnc([C@@H]5CCCN5CCCO)n4c3)c3ccccc32)cc1
Cc1ccc(-n2nc(C(C)(C)C)cc2NC(=O)N[C@H]2CC[C@@H](Oc3ccc4nnc(N(C)C)n4c3)c3ccccc32)cc1
CC(C)(C)c1cc(NC(=O)N[C@H]2CC[C@@H](Oc3ccc4nnc(N5CCCCC5)n4c3)c3ccccc32)n(-c2cccc(CN3CCC(O)CC3)c2)n1
Cc1ccc(-n2nc(C(C)(C)C)cc2NC(=O)N[C@H]2CC[C@@H](Oc3ccc4nnc(N5CCCCC5)n4c3)c3ccccc32)cc1
C[C@H]1CCCCN1c1nnc2ccc(O[C@@H]3CC[C@H](NC(=O)Nc4cc(C(C)(C)C)nn4-c4ccc(CN5CCCC5)cc4)c4ccccc43)cn12
C[C@H]1CCCCN1c1nnc2ccc(O[C@@H]3CC[C@H](NC(=O)Nc4cc(C(C)(C)C)nn4-c4ccc(CN5CCCCC5)cc4)c4ccccc43)cn12
Cc1ccc(-n2nc(C(C)(C)C)cc2NC(=O)N[C@H]2CC[C@@H](Oc3ccc4nnc(C(C)(C)N(C)C)n4c3)c3ccccc32)cc1
Cc1ccc(-n2nc(C(C)(C)C)cc2NC(=O)N[C@H]2CC[C@@H](Oc3ccc4nnc(N(C)CCN(C)C)n4c3)c3ccccc32)cc1
Cc1ccc(-n2nc(C(C)(C)C)cc2NC(=O)N[C@H]2CC[C@@H](Oc3ccc4nnc(N5CCC[C@@H]5CO)n4c3)c3ccccc32)cc1
C[C@H]1CCCCN1c1nnc2ccc(O[C@@H]3CC[C@H](NC(=O)Nc4cc(C(C)(C)C)nn4-c4cccc(CN5CCN(C)CC5)c4)c4ccccc43)cn12
C[C@H]1CCCCN1c1nnc2ccc(O[C@@H]3CC[C@H](NC(=O)Nc4cc(C(C)(C)C)nn4-c4ccc(CN5CCN(C)CC5)cc4)c4ccccc43)cn12
CN(C)CCOc1cccc(-n2nc(C(C)(C)C)cc2NC(=O)N[C@H]2CC[C@@H](Oc3ccc4nnc(N5CCCCC5)n4c3)c3ccccc32)c1
COCC(=O)Nc1cc(O[C@@H]2CC[C@H](NC(=O)Nc3cc(C(C)(C)C)nn3-c3ccc(C)cc3)c3ccccc32)ccn1
C[C@H]1CCCCN1c1nnc2ccc(O[C@@H]3CC[C@H](NC(=O)Nc4cc(C(C)(C)C)nn4CCN(C)C)c4ccccc43)cn12
Cc1ccc(-n2nc(C(C)(C)C)cc2NC(=O)N[C@H]2CC[C@@H](Oc3ccc4nnc(N5CC[C@@H](O)C5)n4c3)c3ccccc32)cc1
CCOC(=O)c1cccc(-n2nc(C(C)(C)C)cc2NC(=O)N[C@H]2CC[C@@H](Oc3ccc4nnc([C@@H]5CCCN5C)n4c3)c3ccccc32)c1
Cc1ccc(-n2nc(C(C)(C)C)cc2NC(=O)N[C@H]2CC[C@@H](Oc3ccc4nnc(CC5CCN(CC(F)F)CC5)n4c3)c3ccccc32)cc1
Cc1ccc(-n2nc(C(C)(C)C)cc2NC(=O)N[C@H]2CC[C@@H](Oc3ccc4nnc(CN5CCN(C)C(CO)C5)n4c3)c3ccccc32)cc1 (stereo partly drawn)
Cc1ccc(-n2nc(C(C)(C)C)cc2NC(=O)N[C@H]2CC[C@@H](Oc3ccc4nnc(N5CC[C@H](O)C5)n4c3)c3ccccc32)cc1
Cc1ccc(-n2nc(C(C)(C)C)cc2NC(=O)N[C@H]2CC[C@@H](Oc3ccc4nnc(NC(C)C)n4c3)c3ccccc32)cc1
C[C@H]1CCCCN1c1nnc2ccc(O[C@@H]3CC[C@H](NC(=O)Nc4cc(C(C)(C)C)nn4-c4ccnc(N(C)CCN(C)C)n4)c4ccccc43)cn12
Cc1ccc(-n2nc(C(C)(C)C)cc2NC(=O)N[C@H]2CC[C@@H](Oc3ccc4nnc(N5CCC[C@@H](O)C5)n4c3)c3ccccc32)cc1
Cc1ccc(-n2nc(C(C)(C)C)cc2NC(=O)N[C@H]2CC[C@@H](Oc3ccc4nnc([C@@H]5C[C@@H](F)CN5C)n4c3)c3ccccc32)cc1
Cc1ccc(-n2nc(C(C)(C)C)cc2NC(=O)N[C@H]2CC[C@@H](Oc3ccc4nnc(N5CCC(CO)CC5)n4c3)c3ccccc32)cc1
C[C@H]1CCCCN1c1nnc2ccc(O[C@@H]3CC[C@H](NC(=O)Nc4cc(C(C)(C)C)nn4-c4cccc(CN5CCOCC5)c4)c4ccccc43)cn12
CC(C)(C)c1cc(NC(=O)N[C@H]2CC[C@@H](Oc3ccc4nnc(N5CCCCC5)n4c3)c3ccccc32)n(-c2cccc(CO)c2)n1
CC(C)(C)c1cc(NC(=O)N[C@H]2CC[C@@H](Oc3ccc4nnc(N5CCCCC5)n4c3)c3ccccc32)n(-c2ccc(O)cc2)n1
Cc1ccc(-n2nc(C(C)(C)C)cc2NC(=O)N[C@H]2CC[C@@H](Oc3ccc4nnc(N5CCCN(C)CC5)n4c3)c3ccccc32)cc1
C[C@@H]1CCC[C@H](C)N1c1nnc2ccc(O[C@@H]3CC[C@H](NC(=O)Nc4cc(C(C)(C)C)nn4CCO)c4ccccc43)cn12
Cc1ccc(-n2nc(C(C)(C)C)cc2NC(=O)N[C@H]2CC[C@@H](Oc3ccc4nnc([C@@H]5CCCCN5C)n4c3)c3ccccc32)cc1
C[C@H]1CCCCN1c1nnc2ccc(O[C@@H]3CC[C@H](NC(=O)Nc4cc(C(C)(C)C)nn4-c4cccc(CN(C)C)c4)c4ccccc43)cn12
